Our source for the IC50 values is patent US12692261B2, “Substituted heterocyclic compounds and therapeutic uses thereof” (Bayer Aktiengesellschaft, priority 2020, dated 2026).

For one assay, the target named is T1, full-length human CSNK1D (Homo sapiens, UniProt P48730).
T1 construct: N-terminal Glutathion-S-Transferase (GST) and full-length human CSNK1D; purchased Life Technologies PV3665; host or cells: baculovirus infected insect cells
Description: CSNK1D Assay (ADP-Glo, 1 μM ATP). It is filed as biochemical. Conditions: Table 3, read-out: CSNK1D IC50 [mol/l] (median). The essentials:
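ADP-Glo luminescence reports ADP generated by GST-fused full-length human CSNK1D (insect-cell expressed, about 0.5 ng/μL) acting on a biotinylated peptide at 1 μM ATP. Test compounds were pre-bound to enzyme 15 min at 22° C in 50 mM HEPES pH 7.5.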
(ADP-Glo first removes unused ATP, then detects ADP through luciferase.)

Assay [1] has as its target T2, full-length human CSNK1A1 (Homo sapiens, UniProt P48729).
T2 construct: N-terminal Glutathion-S-Transferase (GST) and full-length human CSNK1A1; purchased Life Technologies PV4174; host or cells: baculovirus infected insect cells
Description: CSNK1A1 High ATP Assay (ADP-Glo, 1 mM ATP).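 Further: 30 min kinase reaction at 22 °C with 100 µM peptide substrate.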 It is filed as biochemical. Conditions: Table 3, read-out: CSNK1A1 high ATP assay IC50 [mol/l] (median). In outline:
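Kinase activity taken as ADP generated, quantified by ADP-Glo luminescence after 1 h ATP depletion and 1 h detection at 22 °C. Enzyme is GST–full-length human CSNK1A1 (insect cell-expressed), pre-bound to compound for 15 min, with phosphopeptide substrate and 1 mM ATP.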

pIC50: −log10 of the molar value.

T1 sequence (P48730 whole entry): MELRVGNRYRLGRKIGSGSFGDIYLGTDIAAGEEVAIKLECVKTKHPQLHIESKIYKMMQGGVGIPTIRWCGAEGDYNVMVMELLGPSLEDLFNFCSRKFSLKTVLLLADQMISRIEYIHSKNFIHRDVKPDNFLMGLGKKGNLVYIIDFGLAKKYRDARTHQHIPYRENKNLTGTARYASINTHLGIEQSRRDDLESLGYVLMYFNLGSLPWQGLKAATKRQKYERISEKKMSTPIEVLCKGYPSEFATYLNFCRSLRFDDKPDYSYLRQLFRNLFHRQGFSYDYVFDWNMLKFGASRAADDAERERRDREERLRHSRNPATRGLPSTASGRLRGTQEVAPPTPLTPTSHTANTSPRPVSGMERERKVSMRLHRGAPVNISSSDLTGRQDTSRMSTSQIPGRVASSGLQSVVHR
T2 sequence (P48729 whole entry): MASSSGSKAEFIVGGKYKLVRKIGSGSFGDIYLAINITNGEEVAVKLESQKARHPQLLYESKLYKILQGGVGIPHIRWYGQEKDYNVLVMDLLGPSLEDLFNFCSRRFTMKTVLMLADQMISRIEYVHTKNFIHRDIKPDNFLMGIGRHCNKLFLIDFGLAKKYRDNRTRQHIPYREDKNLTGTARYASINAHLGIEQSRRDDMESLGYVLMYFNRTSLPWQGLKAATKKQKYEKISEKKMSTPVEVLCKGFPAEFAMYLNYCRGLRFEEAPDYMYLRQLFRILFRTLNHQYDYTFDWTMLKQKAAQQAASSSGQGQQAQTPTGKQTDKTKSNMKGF

As to `O=C(Nc1cc(-c2[nH]c3c(O[C@H]4CCOC4)ncnc3c2-c2ccccn2)ccn1)C(CC(F)F)c1ccc(F)cc1` (single isomer, unassigned) [Example 74, (2R or S)-4,4-difluoro-2-(4-fluorophenyl)-N-{4-[4-{[(3S)-oxolan-3-yl]oxy}-7-(pyridin-2-yl)-5H-pyrrolo[3,2-d]pyrimidin-6-yl]pyridin-2-yl}butanamide], the results for the pIC50 (at full-length human CSNK1D; in assay [1]) were 7.26 and 7.45, respectively.
In the same order, the values of `O=C(Nc1cc(-c2[nH]c3c(OC[C@@H]4COCCO4)cc(F)nc3c2-c2ccccn2)ccn1)C(CC(F)F)c1ccc(F)cc1` (mixture of isomers) [Example 57, (2RS)—N-(4-{7-[(2S)-1,4-dioxan-2-ylmethoxy]-5-fluoro-3-(pyridin-2-yl)-1H-pyrrolo[3,2-b]pyridin-2-yl}pyridin-2-yl)-4,4-difluoro-2-(4-fluorophenyl)butanamide] are 8.20 and 8.10.
As for `O=C(Nc1cc(-c2[nH]c3nc(F)cnc3c2-c2ccccn2)ccn1)C(CC(F)F)c1ccc(F)cc1` (racemic) [Example 60, (2RS)-4,4-difluoro-2-(4-fluorophenyl)-N-{4-[3-fluoro-7-(pyridin-2-yl)-5H-pyrrolo[2,3-b]pyrazin-6-yl]pyridin-2-yl}butanamide], the pIC50 is 7.90 on full-length human CSNK1D and 8.24 in assay [1].
With `O=C(Nc1cc(-c2[nH]c3cc(Cl)cnc3c2-c2ccccn2)ccn1)C(CC(F)F)c1ccc(F)cc1` (single isomer, unassigned) [Example 89, (−)—N-{4-[6-chloro-3-(pyridin-2-yl)-1H-pyrrolo[3,2-b]pyridin-2-yl]pyridin-2-yl}-4,4-difluoro-2-(4-fluorophenyl)butanamide], the pIC50 on full-length human CSNK1D was 6.98; in assay [1] it was 7.05.
Consider `O=C(Nc1cc(-c2[nH]c3ccnnc3c2-c2ccccn2)ccn1)C(CC(F)F)c1ccc(F)cc1` (racemic) [Example 65, (2RS)-4,4-difluoro-2-(4-fluorophenyl)-N-{4-[7-(pyridin-2-yl)-5H-pyrrolo[3,2-c]pyridazin-6-yl]pyridin-2-yl}butanamide], for which the pIC50 on full-length human CSNK1D was 8.25; in assay [1], 8.56.
On to `O=C(Nc1cc(-c2[nH]c3c(O[C@H]4CCOC4)cc(F)nc3c2-c2ccccn2)ccn1)C(CC(F)F)c1ccc(F)cc1` (single isomer, unassigned) [Example 54, (2R or S)-4,4-difluoro-N-{4-[5-fluoro-7-{[(3S)-oxolan-3-yl]oxy}-3-(pyridin-2-yl)-1H-pyrrolo[3,2-b]pyridin-2-yl]pyridin-2-yl}-2-(4-fluorophenyl)butanamide], for which the figures for the pIC50 (at full-length human CSNK1D; in assay [1]) were 8.43 and 8.37, respectively.
For the molecule `O=C(Nc1cc(-c2[nH]c3c(OC[C@H]4COCCO4)cc(F)nc3c2-c2ccccn2)ccn1)C(CC(F)F)c1ccc(F)cc1` (single isomer, unassigned) [Example 52, (2R or S)—N-{4-[7-{[(2R)-1,4-dioxan-2-yl]methoxy}-5-fluoro-3-(pyridin-2-yl)-1H-pyrrolo[3,2-b]pyridin-2-yl]pyridin-2-yl}-4,4-difluoro-2-(4-fluorophenyl)butanamide], the pIC50 at full-length human CSNK1D was 7.63; in assay [1], 7.76.
As to `O=C(Nc1cc(-c2[nH]c3ccc(Cl)nc3c2-c2ccccn2)ccn1)C(CC(F)F)c1ccc(F)cc1` (racemic) [Example 70, (2RS)—N-{4-[5-chloro-3-(pyridin-2-yl)-1H-pyrrolo[3,2-b]pyridin-2-yl]pyridin-2-yl}-4,4-difluoro-2-(4-fluorophenyl)butanamide], the results for the pIC50 (at full-length human CSNK1D; in assay [1]) were 8.04 and 8.27, respectively.
The like results for `O=C(Nc1cc(-c2[nH]c3c(O[C@H]4CCOC4)cc(F)nc3c2-c2ccccn2)ccn1)C(CC(F)F)c1ccc(F)cc1` (mixture of isomers) [Example 53, (2RS)-4,4-difluoro-N-{4-[5-fluoro-7-{[(3S)-oxolan-3-yl]oxy}-3-(pyridin-2-yl)-1H-pyrrolo[3,2-b]pyridin-2-yl]pyridin-2-yl}-2-(4-fluorophenyl)butanamide] were, in that order, 8.14 and 8.22.
In the same order, the values of `O=C(Nc1cc(-c2[nH]c3ncc(F)nc3c2-c2ccccn2)ccn1)C(CC(F)F)c1ccc(F)cc1` (racemic) [Example 62, (2RS)-4,4-difluoro-2-(4-fluorophenyl)-N-{4-[2-fluoro-7-(pyridin-2-yl)-5H-pyrrolo[2,3-b]pyrazin-6-yl]pyridin-2-yl}butanamide] are 8.05 and 8.41.
On to `O=C(Nc1cc(-c2[nH]c3c(N4CCNCC4)ccnc3c2-c2ccccn2)ccn1)C(CC(F)F)c1ccc(F)cc1` (racemic) [Example 92, (2RS)-4,4-difluoro-2-(4-fluorophenyl)-N-{4-[7-(piperazin-1-yl)-3-(pyridin-2-yl)-1H-pyrrolo[3,2-b]pyridin-2-yl]pyridin-2-yl}butanamide], for which the pIC50 is 8.20 at full-length human CSNK1D and 8.63 in assay [1].
Take `O=C(Nc1cc(-c2[nH]c3cc(F)cnc3c2-c2ccccn2)ccn1)C(CO)c1ccc(F)cc1` (racemic) [Example 71, (2RS)—N-(4-(6-fluoro-3-(pyridin-2-yl)-1H-pyrrolo[3,2-b]pyridin-2-yl)pyridin-2-yl)-2-(4-fluorophenyl)-3-hydroxypropanamide]: the pIC50 was 7.89 at full-length human CSNK1D and 8.09 in assay [1].
Consider `Cc1cnc2c(-c3ccccn3)c(-c3ccnc(NC(=O)C(CC(F)F)c4ccc(F)cc4)c3)[nH]c2n1` (single isomer, unassigned; (+)) [Example 86, (+)-4,4-difluoro-2-(4-fluorophenyl)-N-{4-[3-methyl-7-(pyridin-2-yl)-5H-pyrrolo[2,3-b]pyrazin-6-yl]pyridin-2-yl}butanamide], for which the pIC50 at full-length human CSNK1D is 8.21; in assay [1], 8.54.
As to `O=C(Nc1cc(-c2[nH]c3c(OCC4CCCO4)cc(F)nc3c2-c2ccccn2)ccn1)C(CC(F)F)c1ccc(F)cc1` (racemic) [Example 61, (2RS)-4,4-difluoro-N-{4-[5-fluoro-7-{[(2RS)-oxolan-2-yl]methoxy}-3-(pyridin-2-yl)-1H-pyrrolo[3,2-b]pyridin-2-yl]pyridin-2-yl}-2-(4-fluorophenyl)butanamide], the pIC50 on full-length human CSNK1D was 8.06; in assay [1], 7.95.
Consider `O=C(Nc1cc(-c2[nH]c3ccnnc3c2-c2ccccn2)ccn1)C(CC(F)F)c1ccc(F)cc1` (single isomer, unassigned) [Example 66, (2R or 2S)-4,4-difluoro-2-(4-fluorophenyl)-N-{4-[7-(pyridin-2-yl)-5H-pyrrolo[3,2-c]pyridazin-6-yl]pyridin-2-yl}butanamide], for which the pIC50 was 8.34 on full-length human CSNK1D and 8.61 in assay [1].
Consider `O=C(Nc1cc(-c2[nH]c3c(OCC(F)F)ncnc3c2-c2ccccn2)ccn1)C(CC(F)F)c1ccc(F)cc1` (single isomer, unassigned) [Example 80, (2R or S)—N-{4-[4-(2,2-difluoroethoxy)-7-(pyridin-2-yl)-5H-pyrrolo[3,2-d]pyrimidin-6-yl]pyridin-2-yl}-4,4-difluoro-2-(4-fluorophenyl)butanamide], for which the results for the pIC50 (at full-length human CSNK1D; in assay [1]) were 7.58 and 7.77, respectively.
For `Cc1cnc2c(-c3ccccn3)c(-c3ccnc(NC(=O)C(CC(F)F)c4ccc(F)cc4)c3)[nH]c2n1` (stereo not shown) [Example 85, 4,4-difluoro-2-(4-fluorophenyl)-N-{4-[3-methyl-7-(pyridin-2-yl)-5H-pyrrolo[2,3-b]pyrazin-6-yl]pyridin-2-yl}butanamide], the pIC50 on full-length human CSNK1D was 8.15; in assay [1], 8.38.
